In patent US20180161461A1, “Rare Earth Oxide Particles and Use Thereof in Particular In Imaging” (Ecole Polytechnique, priority 2012, published 2018):

Experiments:
[1] = logarithmic dissociation constant for the Gd-ligand complexes (GdL); cited from earlier work
[2] = proton resonance frequency 20 MHz, available temperature closest to 37° C.; cited from earlier work
[3] = Measurement of relaxation time / relaxivity, Bruker minispec relaxometer; assay type: physicochemical; conditions: relaxivity per Gd ion, 20 MHz, 37° C., ultrapure water
Protocol: The relaxation times relating to the particles obtained were measured on a Bruker minispec NMS 120 relaxometer (Bruker, Rheinstetten, Germany) operating at a proton resonance frequency of ω/2π=20 MHz and a temperature of 37° C. In order to avoid any confusion between angular frequency ω and the frequency v, here, all of the frequencies given in Hz correspond to ω/2π=v. The spectrometer was calibrated using standard water/oil mixtures with known component ratios, in accordance with the manufacturer's instructions. The pre-diluted samples were further diluted directly in 10 mm NMR (nuclear magnetic resonance) tubes using a series containing 10×1 mL samples. All of the dilutions were made using ultrapure water. The tubes were sealed and placed in a water bath at 37° C. for at least 10 minutes before measurement, The relaxation times T1 were determined by using the inversion-recovery pulse sequence with a repetition time TR=5 s. […] In general, 100 echoes with an echo time TE between 0.5 and 2 ms depending on the concentration of the sample were recorded. […]
The relaxivities per particle were determined by firstly calculating the volume of a particle. To this end, the nanoparticles were assumed to be homogeneous in dimension and spherical with a diameter equal to the number average diameter determined by DLS (dynamic light scattering). […]

Compound	pKGdL [1]	r1 [2] [mM⁻¹ s⁻¹]	r1^ion [3] [mM⁻¹ s⁻¹]
CNC[C@H](O)[C@@H](O)[C@H](O)[C@H](O)CO.CNC[C@H](O)[C@@H](O)[C@H](O)[C@H](O)CO.O=C([O-])CN(CCN(CC(=O)[O-])CC(=O)O)CCN(CC(=O)O)C(COCc1ccccc1)C(=O)[O-].[Gd+3] (stereo not drawn) [MultiHance]	22.6	4.39	
COCCNC(=O)CN(CCN(CCN(CC(=O)[O-])CC(=O)NCCOC)CC(=O)[O-])CC(=O)[O-].[Gd+3] [OptiMark]	16.8	4.7	
CNC(=O)CN(CCN(CCN(CC(=O)[O-])CC(=O)NC)CC(=O)[O-])CC(=O)[O-].[Gd+3] [Omniscan]	16.9	3.96	
CC(O)CN1CCN(CC(=O)[O-])CCN(CC(=O)[O-])CCN(CC(=O)[O-])CC1.[Gd+3] (stereo not drawn) [Prohance]	23.8	3.7	
O=C([O-])CN(CCN(CC(=O)[O-])CC(COP(=O)([O-])OC1CCC(c2ccccc2)(c2ccccc2)CC1)N(CC(=O)[O-])CC(=O)[O-])CC(=O)[O-].[Gd+3].[Na+].[Na+].[Na+] (stereo not drawn) [Ablavar]	6.6		
CNC[C@H](O)[C@@H](O)[C@H](O)[C@H](O)CO.CNC[C@H](O)[C@@H](O)[C@H](O)[C@H](O)CO.O=C([O-])CN(CCN(CC(=O)[O-])CC(=O)O)CCN(CC(=O)[O-])CC(=O)O.[Gd+3] [Magnevist]	22.5	3.8	
[Cl][Gd]([Cl])[Cl] [GdCl3]			10.4
CCOc1ccc(CC(CN(CCN(CC(=O)[O-])CC(=O)[O-])CC(=O)[O-])N(CC(=O)[O-])CC(=O)[O-])cc1.[Gd+3].[Na+].[Na+] (stereo not drawn) [Eovist]		5.4	
O=C([O-])CN1CCN(CC(=O)[O-])CCN([C@H](CO)[C@H](O)CO)CCN(CC(=O)[O-])CC1.[Gd+3] (racemic) [Gadovist]	21.1	4.8	
